From paper PMC6348381, “Discovery of an MLLT1/3 YEATS Domain Chemical Probe” (Angewandte Chemie (International Ed. in English), 2018)

What was measured:
Type in all cases: binding
[1] = target: T1, KIAA1240 (Homo sapiens, UniProt Q9ULI0); test: Thermal shift assay, KIAA1240
T1 construct: purchased in-house (SGC bromodomain thermal shift / AlphaScreen panel)
T1 sequence (Q9ULI0 1-1458): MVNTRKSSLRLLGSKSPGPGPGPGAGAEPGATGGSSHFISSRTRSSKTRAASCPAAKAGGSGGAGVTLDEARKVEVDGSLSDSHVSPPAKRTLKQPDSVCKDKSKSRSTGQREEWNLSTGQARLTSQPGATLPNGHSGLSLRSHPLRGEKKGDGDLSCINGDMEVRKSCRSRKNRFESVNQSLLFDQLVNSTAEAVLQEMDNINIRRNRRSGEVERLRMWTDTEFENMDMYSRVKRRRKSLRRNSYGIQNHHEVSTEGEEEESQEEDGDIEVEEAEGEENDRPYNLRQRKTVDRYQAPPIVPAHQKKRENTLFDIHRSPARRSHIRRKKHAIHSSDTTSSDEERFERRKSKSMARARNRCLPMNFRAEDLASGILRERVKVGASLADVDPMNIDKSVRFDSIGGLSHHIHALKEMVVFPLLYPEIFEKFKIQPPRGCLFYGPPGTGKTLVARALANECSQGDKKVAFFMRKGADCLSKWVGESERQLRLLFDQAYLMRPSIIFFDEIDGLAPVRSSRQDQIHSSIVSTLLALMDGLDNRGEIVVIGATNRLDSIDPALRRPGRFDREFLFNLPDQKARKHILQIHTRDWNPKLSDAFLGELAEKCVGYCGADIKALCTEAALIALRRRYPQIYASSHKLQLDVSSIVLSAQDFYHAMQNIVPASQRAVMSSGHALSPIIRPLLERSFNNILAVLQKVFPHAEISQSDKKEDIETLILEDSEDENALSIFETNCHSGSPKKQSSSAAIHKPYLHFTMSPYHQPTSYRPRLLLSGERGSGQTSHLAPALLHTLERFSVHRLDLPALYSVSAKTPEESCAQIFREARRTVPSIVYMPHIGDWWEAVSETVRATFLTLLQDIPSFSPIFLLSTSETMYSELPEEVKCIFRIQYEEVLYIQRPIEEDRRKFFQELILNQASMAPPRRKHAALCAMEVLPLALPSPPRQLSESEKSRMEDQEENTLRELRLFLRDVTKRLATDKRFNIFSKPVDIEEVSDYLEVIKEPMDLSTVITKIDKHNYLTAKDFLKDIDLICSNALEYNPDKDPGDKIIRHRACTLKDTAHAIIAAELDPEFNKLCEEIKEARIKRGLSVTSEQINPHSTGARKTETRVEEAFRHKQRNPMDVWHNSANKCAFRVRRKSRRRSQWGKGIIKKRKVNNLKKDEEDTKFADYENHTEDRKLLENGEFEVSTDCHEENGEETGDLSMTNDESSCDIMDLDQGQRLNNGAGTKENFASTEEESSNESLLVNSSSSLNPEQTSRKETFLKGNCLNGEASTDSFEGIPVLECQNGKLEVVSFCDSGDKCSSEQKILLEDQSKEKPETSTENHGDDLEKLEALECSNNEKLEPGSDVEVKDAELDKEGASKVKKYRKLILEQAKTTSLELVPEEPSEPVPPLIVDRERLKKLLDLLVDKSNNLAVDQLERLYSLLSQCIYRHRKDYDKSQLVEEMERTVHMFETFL
Procedure: (§1) II.VII Thermal Shift Assay[6]
(§2) Thermal melting experiments were carried out using an Mx3005p Real Time PCR machine (Stratagene). Proteins were buffered in 10 mM HEPES pH 7.5, 500 mM NaCl and assayed in a 96-well plate at a final concentration of 2 μM in 20 μL volume. Compounds were added at a final concentration of 50 μM. SYPRO Orange (Molecular Probes) was added as a fluorescence probe at a dilution of 1:1000. Excitation and emission filters for the SYPRO-Orange dye were set to 465 nm and 590 nm, respectively. The temperature was raised with a step of 3 °C per minute from 25 °C to 96 °C and fluorescence readings were taken at each interval. The unfolding curves were fitted using the Boltzmann equation to determine the middle point of the transition.

[2] = target: T2, PCAF (Homo sapiens, UniProt Q92831); test: Thermal shift assay, PCAF
T2 construct: purchased in-house (SGC bromodomain thermal shift / AlphaScreen panel)
T2 sequence (Q92831 whole entry): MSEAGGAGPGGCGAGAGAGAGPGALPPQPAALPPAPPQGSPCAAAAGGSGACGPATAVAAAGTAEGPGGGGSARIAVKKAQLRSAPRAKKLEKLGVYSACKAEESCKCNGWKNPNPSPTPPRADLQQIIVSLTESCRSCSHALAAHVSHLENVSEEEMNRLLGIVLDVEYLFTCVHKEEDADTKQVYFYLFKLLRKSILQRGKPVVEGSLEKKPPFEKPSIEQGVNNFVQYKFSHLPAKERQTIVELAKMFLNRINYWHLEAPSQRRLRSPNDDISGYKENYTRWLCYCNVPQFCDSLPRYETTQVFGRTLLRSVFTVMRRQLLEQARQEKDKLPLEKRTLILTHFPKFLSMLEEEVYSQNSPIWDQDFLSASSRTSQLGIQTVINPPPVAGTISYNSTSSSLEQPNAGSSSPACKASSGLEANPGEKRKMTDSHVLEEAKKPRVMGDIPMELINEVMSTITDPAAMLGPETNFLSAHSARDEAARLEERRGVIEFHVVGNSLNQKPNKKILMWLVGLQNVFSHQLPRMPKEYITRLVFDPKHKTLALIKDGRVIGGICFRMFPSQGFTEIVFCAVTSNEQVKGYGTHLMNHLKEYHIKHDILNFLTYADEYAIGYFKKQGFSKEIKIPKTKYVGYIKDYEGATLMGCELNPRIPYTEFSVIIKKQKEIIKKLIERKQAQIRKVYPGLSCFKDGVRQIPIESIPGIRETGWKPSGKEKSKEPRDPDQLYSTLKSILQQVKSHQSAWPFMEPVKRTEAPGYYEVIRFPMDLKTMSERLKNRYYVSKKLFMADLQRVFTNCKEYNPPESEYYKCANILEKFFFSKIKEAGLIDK

[3] = target: T3, ASH1L (Homo sapiens, UniProt Q9NR48); test: Thermal shift assay, ASH1L
T3 construct: purchased in-house (SGC bromodomain thermal shift / AlphaScreen panel)
Procedure: as §1, §2

[4] = target: T4, BRD9 (Homo sapiens, UniProt Q9H8M2); test: Thermal shift assay, BRD9
T4 construct: purchased in-house (SGC bromodomain thermal shift / AlphaScreen panel)
T4 sequence (Q9H8M2 1-597): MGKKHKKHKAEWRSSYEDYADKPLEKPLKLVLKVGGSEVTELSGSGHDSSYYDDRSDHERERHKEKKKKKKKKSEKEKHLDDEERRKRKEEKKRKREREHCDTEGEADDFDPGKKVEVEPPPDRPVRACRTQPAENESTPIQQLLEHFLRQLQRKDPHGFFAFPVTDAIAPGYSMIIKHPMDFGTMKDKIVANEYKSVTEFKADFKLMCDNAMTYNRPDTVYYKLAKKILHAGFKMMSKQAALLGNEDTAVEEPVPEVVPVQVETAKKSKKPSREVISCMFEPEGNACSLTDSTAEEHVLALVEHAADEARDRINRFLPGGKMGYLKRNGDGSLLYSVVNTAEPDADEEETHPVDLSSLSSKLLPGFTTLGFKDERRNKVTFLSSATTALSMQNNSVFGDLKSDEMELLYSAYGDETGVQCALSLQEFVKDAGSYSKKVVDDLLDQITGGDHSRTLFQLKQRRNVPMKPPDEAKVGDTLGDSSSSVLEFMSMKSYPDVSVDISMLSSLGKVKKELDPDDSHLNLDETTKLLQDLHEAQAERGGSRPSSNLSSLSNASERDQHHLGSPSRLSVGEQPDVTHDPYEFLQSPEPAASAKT
Procedure: as §1, §2

[5] = target: T5, PB1(2) (Homo sapiens, UniProt Q86U86); test: Thermal shift assay, PB1(2)
T5 construct: PB1(2); purchased in-house (SGC bromodomain thermal shift / AlphaScreen panel)
T5 sequence (Q86U86 178-291 limits assumed): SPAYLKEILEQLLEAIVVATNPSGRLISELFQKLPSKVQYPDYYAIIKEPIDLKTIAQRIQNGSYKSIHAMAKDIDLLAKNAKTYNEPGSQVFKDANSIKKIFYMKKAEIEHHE

[6] = target: T6, PB1(4) (Homo sapiens, UniProt Q86U86); test: Thermal shift assay, PB1(4)
T6 construct: PB1(4); purchased in-house (SGC bromodomain thermal shift / AlphaScreen panel)
T6 sequence (Q86U86 496-637 limits assumed): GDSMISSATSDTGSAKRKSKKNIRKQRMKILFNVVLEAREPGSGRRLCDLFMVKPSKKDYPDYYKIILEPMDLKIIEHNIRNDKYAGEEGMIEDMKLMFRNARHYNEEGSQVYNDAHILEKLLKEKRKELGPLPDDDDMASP
Procedure: as §1, §2

[7] = target: T7, TRIM33B (Homo sapiens, UniProt Q9UPN9); test: Thermal shift assay, TRIM33B
T7 construct: Bromosporine with recombinant human bromodomain proteins; made in house
T7 sequence (Q9UPN9 957-1063 isoform Q9UPN9-2 limits assumed): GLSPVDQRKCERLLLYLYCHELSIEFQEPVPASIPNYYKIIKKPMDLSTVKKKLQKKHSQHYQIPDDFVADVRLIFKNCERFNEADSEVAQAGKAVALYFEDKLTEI
Procedure: as §1, §2

[8] = target: T8, TAF1(2) (Homo sapiens, UniProt P21675); test: Thermal shift assay, TAF1(2)
T8 construct: Bromosporine with recombinant human bromodomain proteins; made in house
T8 sequence (P21675 1519-1628 limits assumed): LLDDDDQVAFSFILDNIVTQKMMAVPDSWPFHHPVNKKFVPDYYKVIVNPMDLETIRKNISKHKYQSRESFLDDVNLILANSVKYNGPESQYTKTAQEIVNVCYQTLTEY
Procedure: as §1, §2

| SMILES | Thermal stabilisation, KIAA1240 ([1]; 10 µM compound concentration) | Thermal stabilisation, PCAF ([2]; 10 µM compound concentration) | Thermal stabilisation, ASH1L ([3]; 10 µM compound concentration) | Thermal stabilisation, BRD9 ([4]; 10 µM compound concentration) | Thermal stabilisation, PB1(2) ([5]; 10 µM compound concentration) | Thermal stabilisation, PB1(4) ([6]; 10 µM compound concentration) | Thermal stabilisation, TRIM33B ([7]; 10 µM compound concentration) | Thermal stabilisation, TAF1(2) ([8]; 10 µM compound concentration) | Thermal stabilisation, KIAA1240 ([1]; 50 μM compound) | Thermal stabilisation, PCAF ([2]; 50 μM compound) | Thermal stabilisation, ASH1L ([3]; 50 μM compound) | Thermal stabilisation, BRD9 ([4]; 50 μM compound) | Thermal stabilisation, PB1(2) ([5]; 50 μM compound) | Thermal stabilisation, PB1(4) ([6]; 50 μM compound) | Thermal stabilisation, TRIM33B ([7]; 50 μM compound) | Thermal stabilisation, TAF1(2) ([8]; 50 μM compound) |
| --- | --- | --- | --- | --- | --- | --- | --- | --- | --- | --- | --- | --- | --- | --- | --- | --- |
| CCOC(=O)Nc1cc(-c2ccc(C)c(NS(C)(=O)=O)c2)nn2c(C)nnc12 [Bromosporine, reference compound] | 0.59 | 1.025 | 0.51 | 7.145 | 0.105 | 1.035 | 0.03 | 5.03 |  |  |  |  |  |  |  |  |
| COC(=O)c1ccc(C(=O)Nc2ccc3[nH]c(CN4CCCCC4)nc3c2)cc1 [Compound 1] |  |  |  |  |  |  |  |  | 0.355 | 0.895 | 0.32 | -0.915 | 0.105 | 0.22 | 0.02 | -0.22 |
| C[C@H]1CCCN1Cc1nc2cc(NC(=O)c3ccc4c(cnn4C)c3)ccc2[nH]1 [Compound 92] |  |  |  |  |  |  |  |  | 0.15 | 0.05 | -0.305 | -1.445 | -0.17 | -0.215 | -0.28 | -0.21 |
